{"source": "patent US7071221B2", "about": "“Heterocyclic oxime compounds” (Les Laboratoires Servier, priority 2004, dated 2006)", "test_system": "ob/ob mouse", "assay": "Antidiabetic and hypolipidaemic effect in the ob/ob mouse", "type": "in vivo", "settings": "female ob/ob mouse; for decrease of glycaemia compared to the control group: twice per day for four days (10 mg/kg i.p. or 30 mg/kg per os; route not given), glycaemia 24 hours after final administration", "source_text": "Mutations in laboratory animals and also different sensitivities to dietary regimens have allowed the development of animal models having non-insulin dependent diabetes and hyperlipidaemia associated with obesity and with resistance to insulin.\nGenetic mice models (ob/ob) (Diabetes, 1982, 31 (1), 1–6) and Zucker (fa/fa) rats have been developed by various laboratories in order to understand the physiopathology of those diseases and test the efficacy of new antidiabetic compounds (Diabetes, 1983, 32, 830–838).\nAntidiabetic and Hypolipidaemic Effect in the ob/ob Mouse\nThe 10-week-old female ob/ob mouse (Harlan) is used for the in vivo tests. The animals are kept in a light-darkness cycle of 12 hours at 25° C. The mouse has a basal hyperglycaemia of 2 g/l. The animals are randomly selected in terms of their glycaemia to form groups of six. The compounds tested by the intraperitoneal route are dissolved in a mixture of dimethyl sulphoxide (10%) and Solutol (15%) to be administered at 10 mg/kg in a volume of 2.5 ml/kg twice per day for four days. By the per os route, the compounds are tested at 30 mg/kg administered in a volume of 2.5 ml/kg of 1% HEC twice per day for four days. The control groups receive the solvents under the same conditions as the treated groups. The activity of the products is evaluated by measuring glycaemia 24 hours after the final administration and by measuring body weight daily.", "data": [{"smiles": "CON=C(c1ccccc1)c1ccc2c(c1)sc(=O)n2CCOc1ccc(CC(OCC(F)(F)F)C(=O)OC)cc1", "note": "(centres unmarked) [Example 3, Methyl 3-{4-[2-(6-[(methoxyimino)(phenyl)methyl]-2-oxo-1,3-benzothiazol-3(2H)-yl)ethoxy]phenyl}-2-(2,2,2-trifluoroethoxy)-propanoate]", "values": [{"measurement": "decrease of the gain of weight compared to the control group", "setting": "twice per day for four days", "result": 80, "unit": "%"}, {"measurement": "decrease of glycaemia compared to the control group", "result": 51, "unit": "%"}]}, {"smiles": "CN(CCOc1ccc(CC2SC(=O)NC2=O)cc1)c1ccccn1", "note": "(centres unmarked) [Rosiglitazone, rosiglitazone]", "values": [{"measurement": "change in body weight", "setting": "four days treatment, body weight measured daily", "result": "significant increase"}, {"measurement": "increase of the body weight compared to the increase of body weight of the control group", "setting": "twice per day for four days", "result": 33, "unit": "%"}, {"measurement": "decrease of glycaemia compared to the control group", "result": 61, "unit": "%"}]}]}
